From EP0959065B1, “Pyrethroid compound and composition for controlling pest containing the same” (priority 1998, dated 1999)

Experiments:
[1] = tested on: houseflies (Musca domestica); assay: Mosquito coil fumigation test in glass chamber (knock-down and lethal activity); assay type: in vivo; parameters: key to Knocking-down activity: Excellent: All the insects were knocked down or dead (the total in the two replications); Good: 1 to 2 insects were not knocked down or dead (ditto); Mediocre: 3 to 4 insects were not knocked down or dead (ditto); Bad: 5 or more insects were not knocked down or dead (ditto); conditions: two replications; for Knocking-down activity: 0.3 g coil burnt 30 seconds in 0.34 m^3 chamber, knocked-down counted at ten minutes, 10 adult houseflies; for Lethal activity: insects recovered at 25 minutes, dead and alive counted in 24 hours
Description: A base material for mosquito coil (obtained by stirring a 4:3:3 mixture of Tabu powder, Pyrethrum marc and wood powder, adding water thereto, thoroughly kneading the resulting mixture, and molding and drying the kneaded mixture) was uniformly impregnated with a solution of the present compound in acetone so that the material contains a predetermined amount of the compound. The resultant base material was air-dried to obtain a mosquito coil.
Ten adult houseflies (Musca domestica) (male/ female = 5/5) were released in a glass chamber (70cm cube, capacity: 0.34 m^3). 0.3 Gram of a mosquito coil containing the present compound prepared according to the procedure described above was set on a holder in the center of the bottom of the chamber, ignited at one end thereof, and taken out of the chamber after 30 seconds of combustion. The knocked-down houseflies were counted in ten minutes after the setting of the coil. In 25 minutes after the setting of the coil, the test insects were recovered into a cup for recovery and given water and diet. The dead and alive were counted in 24 hours. Two replications of the test were carried out. The same test procedure was repeated for 4-methyl-2,3,5,6-tetrafluorobenzyl (1R)-cis-3-(2,2-dichlorovinyl)-2,2-dimethylcyclopropanecarboxylate (hereinafter referred to as reference compound A) and for a mixture of 50% by weight of 4-methyl-2,3,5,6-tetrafluorobenzyl (1RS)-cis-3-(2,2-dichlorovinyl)-2,2-dimethylcyclopropanecarboxylate and 50% by weight of 4-methyl-2,3,5,6-tetrafluorobenzyl (1RS)-trans-3-(2,2-dichlorovinyl)-2,2-dimethylcyclopropanecarboxylate (this mixture is hereinafter referred to as reference compound B). […] In the table, the knocking-down activity and the lethal activity are indicated according to the following criterion: • Excellent: All the insects were knocked down or dead (the total in the two replications). • Good: 1 to 2 insects were not knocked down or dead (ditto). • Mediocre: 3 to 4 insects were not knocked down or dead (ditto). • Bad: 5 or more insects were not knocked down or dead (ditto).

female adult houseflies = assay: Insecticidal activity against housefly, topical application of acetone dilutions on the nota; assay type: in vivo; conditions: Musca domestica, 0.5 µl acetone dilution per insect on the nota, mortality after 24 hours
Method: The present compound was diluted with acetone to concentrations of 100, 50, 25, 12.5 and 6.25 ppm. Each of reference compounds A and B was also diluted with acetone to concentrations of 400, 200, 100, 50 and 25 ppm. Each of the dilutions thus prepared was applied on the nota of female adult houseflies in a volume of 0.5 µl per insect. The insects were given water and diet. After 24 hours, the dead and alive were counted for mortality. From the mortality, LD50 (mg/kg) value was determined.

[2] = Toxicity to rat, administration of corn oil dilutions; conditions: in vivo, male rats, dilution in corn oil, 10 ml/kg, mortality after 7 days
Method: Each of the present compound and reference compounds A and B was diluted with corn oil to predetermined concentrations. Each of the dilutions thus prepared was administered to male rats in an amount of 10 ml/kg. The rats were given water and diet. After 7 days, the dead and alive were counted for mortality. From the mortality, LD50 (mg/kg) value was determined.

[3] = Calculation of safety factor (rat LD50 / housefly LD50); conditions: Toxicity to rat (LD50 value) / Insecticidal activity against housefly (LD50 value)
Method: The safety factor was calculated from the insecticidal activity against housefly and the toxicity to rat according to the following equation. […] Safety factor = Toxicity to rat (LD50 value)] / [Insecticidal activity against housefly (LD50 value)] [formula]

Row | Molecule | Knocking-down activity ([1]; concentration 0.5 %W/W) | Lethal activity ([1]; concentration 0.5 %W/W) | LD50 (female adult houseflies) [mg/kg] | LD50 at 7 days [2] [mg/kg] | Safety factor [3] | Knocking-down activity ([1]; concentration 1.0 %W/W) | Lethal activity ([1]; concentration 1.0 %W/W)
1 | Cc1c(F)c(F)c(COC(=O)[C@@H]2[C@@H](C=C(Cl)Cl)C2(C)C)c(F)c1F [Present compound, 4-methyl-2,3,5,6-tetrafluorobenzyl (1R)-trans-3-(2,2-dichlorovinyl)-2,2-dimethylcyclopropanecarboxylate] | Excellent | Good (1 to 2 insects were not knocked down or dead (ditto)) | 0.93 | 300 | 320 |  | 
2 | Cc1c(F)c(F)c(COC(=O)[C@@H]2[C@H](C=C(Cl)Cl)C2(C)C)c(F)c1F [Reference compound A, 4-methyl-2,3,5,6-tetrafluorobenzyl (1R)-cis-3-(2,2-dichlorovinyl)-2,2-dimethylcyclopropanecarboxylate] | Bad (5 or more insects were not knocked down or dead (ditto)) | Bad (5 or more insects were not knocked down or dead (ditto)) | 2.8 | < 100 | <36 |  | 
3 | mixture of 50% by weight of 4-methyl-2,3,5,6-tetrafluorobenzyl (1RS)-cis-3-(2,2-dichlorovinyl)-2,2-dimethylcyclopropanecarboxylate and 50% by weight of 4-methyl-2,3,5,6-tetrafluorobenzyl (1RS)-trans-3-(2,2-dichlorovinyl)-2,2-dimethylcyclopropanecarboxylate [Reference compound B] | Bad (5 or more insects were not knocked down or dead (ditto)) | Bad (5 or more insects were not knocked down or dead (ditto)) |  |  | <35 | Mediocre (3 to 4 insects were not knocked down or dead (ditto)) | Bad (5 or more insects were not knocked down or dead (ditto))
